The source of these data is PubChem BioAssay AID180 (DTP/NCI, 2004).

In this assay the test system is BDF1 mice, Adenocarcinoma 755 s.c., tumor weight T/C. As to the kind of experiment: NCI In Vivo Anticancer Drug Screen. Data for tumor model Adenocarcinoma 755 (subcutaneous) in B6D2F1 (BDF1) mice. As to conditions: endpoint: mean tumor weight, higher = larger tumour. The gist of the method:
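In vivo antitumor screen on a transplantable tumor line. Result equals the measure in compound-treated animals divided by the same measure in vehicle controls.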

The mark [1] stands for this setting: dose: 100.0 mg/kg/injection, schedule: Q01DX011 (ip), vehicle: saline.
[2] abbreviates: dose: 15.0 mg/kg/injection, schedule: Q01DX011 (ip), vehicle: methylcellulose (MC).
Where [3] appears, read: dose: 50.0 mg/kg/injection, schedule: Q01DX011 (ip), vehicle: methylcellulose (MC).
Where [4] appears, read: dose: 12.5 mg/kg/injection, schedule: Q01DX011 (ip), vehicle: methylcellulose (MC).
Setting [5] is: dose: 25.0 mg/kg/injection, schedule: Q01DX011 (ip), vehicle: methylcellulose (MC).
The mark [6] stands for this setting: dose: 100.0 mg/kg/injection, schedule: Q01DX011 (ip), vehicle: methylcellulose (MC).

SMILES strings stand for the structures. Several values for one entry are separate records, joined by “and”; a condition that tells them apart may be missing. Equal values may be shown once.

In the case of `Nc1nc(SC2CCCCC2)c2[nH]cnc2n1`, the T/C was 60 % of control (dose: 1.0 mg/kg/injection, schedule: Q01DX011 (ip), vehicle: carboxymethylcellulose (CMC)); 83 % of control (dose: 5.0 mg/kg/injection, schedule: Q01DX011 (ip), vehicle: carboxymethylcellulose (CMC)); 4 % of control and 9 % of control (dose: 20.0 mg/kg/injection, schedule: Q01DX011 (ip), vehicle: carboxymethylcellulose (CMC)); 1 % of control (dose: 40.0 mg/kg/injection, schedule: Q01DX011 (ip), vehicle: carboxymethylcellulose (CMC)); 1 % of control (dose: 80.0 mg/kg/injection, schedule: Q01DX011 (ip), vehicle: carboxymethylcellulose (CMC)); 2 % of control (dose: 160.0 mg/kg/injection, schedule: Q01DX011 (ip), vehicle: carboxymethylcellulose (CMC)).

On to `NNc1nncc2ccccc12`, for which the T/C is 90 % of control (dose: 37.5 mg/kg/injection, schedule: Q01DX011 (ip), vehicle: carboxymethylcellulose (CMC)) and 47 % of control (dose: 75.0 mg/kg/injection, schedule: Q01DX011 (ip), vehicle: carboxymethylcellulose (CMC)).

Consider `C[N+](C)(C)c1ncnc2c1ncn2C1CCCCO1` (stereo unspecified), for which the T/C is 58 % of control (dose: 33.0 mg/kg/injection, schedule: Q01DX011 (ip), vehicle: saline) and 12 % of control under setting [1].

As for `CCCCCCOP(=O)(N1CC1C)N1CC1C` (stereo unspecified), the T/C runs as follows: (dose: 12.5 mg/kg/injection, schedule: Q01DX011 (ip), vehicle: saline) 100 % of control; under setting [1], 13 % of control and 19 % of control and 26 % of control.

Turning to `O=C(Nc1ccc(NC2=NCCN2)cc1)c1ccc(C(=O)Nc2ccc(NC3=NCCN3)cc2)cc1`, the T/C (dose: 4.0 mg/kg/injection, schedule: Q01DX011 (ip), vehicle: saline) is 96 % of control; the T/C (dose: 8.0 mg/kg/injection, schedule: Q01DX011 (ip), vehicle: saline) was 85 % of control; the T/C (dose: 16.0 mg/kg/injection, schedule: Q01DX011 (ip), vehicle: saline) was 83 % of control.

For the compound `CC(=O)Nc1nc(SCc2ccccc2)c2ncn(C3CCCO3)c2n1` (stereo unspecified), the T/C is 54 % of control (dose: 6.2 mg/kg/injection, schedule: Q01DX011 (ip), vehicle: methylcellulose (MC)); 6 % of control under setting [2]; 4 % of control under setting [3].

With `CC(=O)[C@H]1CC[C@H]2[C@@H]3CCC4=CC(=O)C=C[C@]4(C)[C@H]3C(=O)C[C@]12C`, the T/C was 62 % of control and 74 % of control (dose: 66.0 mg/kg/injection, schedule: Q01DX011 (sc), vehicle: steriod suspending solution); 37 % of control and 58 % of control (dose: 132.0 mg/kg/injection, schedule: Q01DX011 (sc), vehicle: steriod suspending solution); 25 % of control and 44 % of control (dose: 264.0 mg/kg/injection, schedule: Q01DX011 (sc), vehicle: steriod suspending solution); 28 % of control and 35 % of control (dose: 528.0 mg/kg/injection, schedule: Q01DX011 (sc), vehicle: steriod suspending solution).

As to `CC(=O)OCC1OC(n2c(Br)nc3c(=O)[nH]c(N)nc32)C(OC(C)=O)C1OC(C)=O` (stereo unspecified), the T/C (dose: 30.0 mg/kg/injection, schedule: Q01DX011 (ip), vehicle: carboxymethylcellulose (CMC)) was 95 % of control; the T/C (dose: 60.0 mg/kg/injection, schedule: Q01DX011 (ip), vehicle: carboxymethylcellulose (CMC)) is 119 % of control; the T/C (dose: 120.0 mg/kg/injection, schedule: Q01DX011 (ip), vehicle: carboxymethylcellulose (CMC)) was 90 % of control; the T/C (dose: 240.0 mg/kg/injection, schedule: Q01DX011 (ip), vehicle: carboxymethylcellulose (CMC)) was 82 % of control.

With `FC(F)(F)c1nc(=S)c2[nH]cnc2[nH]1`, the T/C was 70 % of control (dose: 6.0 mg/kg/injection, schedule: Q01DX011 (ip), vehicle: carboxymethylcellulose (CMC)); 81 % of control (dose: 25.0 mg/kg/injection, schedule: Q01DX011 (ip), vehicle: carboxymethylcellulose (CMC)); 89 % of control (dose: 100.0 mg/kg/injection, schedule: Q01DX011 (ip), vehicle: carboxymethylcellulose (CMC)).

For the compound `N#Cc1ccc(Nc2cc(Cl)nc(N)n2)cc1`, the T/C is, setting by setting: under setting [2], 89 % of control; (dose: 31.0 mg/kg/injection, schedule: Q01DX011 (ip), vehicle: methylcellulose (MC)) 87 % of control; (dose: 62.0 mg/kg/injection, schedule: Q01DX011 (ip), vehicle: methylcellulose (MC)) 50 % of control; (dose: 125.0 mg/kg/injection, schedule: Q01DX011 (ip), vehicle: methylcellulose (MC)) 97 % of control; (dose: 250.0 mg/kg/injection, schedule: Q01DX011 (ip), vehicle: methylcellulose (MC)) 65 % of control.

For the compound `NC(CS)C(=O)O` (stereo unspecified) (tested in a mixture with another compound), the T/C runs as follows: (dose: 150.0 mg/kg/injection, schedule: Q01DX011 (ip), vehicle: methylcellulose (MC)) 42 % of control; (dose: 150.0 mg/kg/injection, schedule: Q01DX011 (ip), vehicle: saline) 56 % of control and 61 % of control; (dose: 225.0 mg/kg/injection, schedule: Q01DX011 (ip), vehicle: methylcellulose (MC)) 31 % of control; (dose: 225.0 mg/kg/injection, schedule: Q01DX011 (ip), vehicle: saline) 18 % of control; (dose: 275.0 mg/kg/injection, schedule: Q01DX011 (ip), vehicle: saline) 55 % of control; (dose: 350.0 mg/kg/injection, schedule: Q01DX011 (ip), vehicle: methylcellulose (MC)) 18 % of control. Further, the T/C was 35 % of control and 48 % of control (dose: 350.0 mg/kg/injection, schedule: Q01DX011 (ip), vehicle: saline); 19 % of control (dose: 500.0 mg/kg/injection, schedule: Q01DX011 (ip), vehicle: methylcellulose (MC)).

With `Nc1nc(SCC(=O)c2ccccc2)c2[nH]cnc2n1`, the T/C (dose: 0.46 mg/kg/injection, schedule: Q01DX011 (ip), vehicle: saline) is 95 % of control; the T/C (dose: 0.93 mg/kg/injection, schedule: Q01DX011 (ip), vehicle: saline) was 91 % of control; the T/C (dose: 1.87 mg/kg/injection, schedule: Q01DX011 (ip), vehicle: saline) was 75 % of control; the T/C (dose: 15.0 mg/kg/injection, schedule: Q01DX011 (ip), vehicle: saline) was 6 % of control; the T/C (dose: 30.0 mg/kg/injection, schedule: Q01DX011 (ip), vehicle: saline) was 4 % of control and 6 % of control; the T/C (dose: 60.0 mg/kg/injection, schedule: Q01DX011 (ip), vehicle: saline) is 4 % of control and 12 % of control. Also, the T/C is, setting by setting: (dose: 120.0 mg/kg/injection, schedule: Q01DX011 (ip), vehicle: saline) 2 % of control; (dose: 240.0 mg/kg/injection, schedule: Q01DX011 (ip), vehicle: saline) 2 % of control.

As to `c1cc(CSc2ncnc3nc[nH]c23)ccn1`, the T/C (dose: 3.1 mg/kg/injection, schedule: Q01DX011 (ip), vehicle: methylcellulose (MC)) was 72 % of control; the T/C (dose: 6.25 mg/kg/injection, schedule: Q01DX011 (ip), vehicle: methylcellulose (MC)) is 39 % of control; the T/C under setting [4] was 29 % of control; the T/C under setting [5] was 16 % of control and 25 % of control; the T/C under setting [3] was 12 % of control; the T/C under setting [6] is 7 % of control. In addition, the T/C (dose: 200.0 mg/kg/injection, schedule: Q01DX011 (ip), vehicle: methylcellulose (MC)) was 2 % of control.

`CN(Cc1ccccc1)c1ncnc2[nH]ncc12`: the T/C under setting [4] was 42 % of control, the T/C under setting [5] is 62 % of control, the T/C under setting [3] was 10 % of control and the T/C under setting [6] was 2 % of control.
